Assay results reported in ChEMBL document CHEMBL5120890, “Untapped Pharmaceutical Potential of 4,5,4'-Trihydroxy-3,3'-dimethoxybibenzyl for Regulating Obesity: A Cell-Based Study with a Focus on Terminal Differentiation in Adipogenesis” (J Nat Prod, 2022).
Active and inactive are the calls of the source. The calls are words filed in the database; no cut-off is given here.

Columns and labels:
[1] = test system: 3T3-L1; assay: Down regulation of CDK2 protein expression in mouse 3T3-L1 cells at 0.5 to 5 uM after 18 hrs by western blot analysis; assay type: functional, cell-based; settings: dose 0.5-5 µM
[2] = test system: 3T3-L1; assay: Upregulation of p21 protein expression in mouse 3T3-L1 cells at 0.5 to 5 uM after 18 hrs by western blot analysis; assay type: functional, cell-based; settings: dose 0.5-5 µM
[3] = test system: 3T3-L1; assay: Inhibition of preadipocyte differentiation in mouse 3T3-L1 cells assessed as increase in glycerol release in maturation at 0.5 to 5 uM incubated for 8 days by colorimetric assay; assay type: functional, cell-based; settings: dose 0.5-5 µM, time 8.0 day, DDE = dose-dependent effect
[4] = test system: 3T3-L1; assay: Induction of apoptosis in mouse 3T3-L1 pre-adipocytes at 0.5 to 5 uM after 48 hrs by PI/Hoechst 33342 staining based fluorescence microscopic analysis; assay type: functional, cell-based; settings: dose 0.5-5 µM
[5] = test system: 3T3-L1; assay: Down regulation of FAS mRNA expression in mouse 3T3-L1 cells in early differentiation at 0.5 to 5 uM after 8 days by RT-qPCR analysis; assay type: functional, cell-based; settings: dose 0.5-5 µM, time 8.0 day
[6] = test system: 3T3-L1; assay: Down regulation of PPARG protein expression in mouse 3T3-L1 cells at 0.5 to 5 uM after 48 hrs by western blot analysis; assay type: functional, cell-based; settings: dose 0.5-5 µM, DDE = dose-dependent effect
[7] = test system: 3T3-L1; assay: Down regulation of adiponectin mRNA expression in mouse 3T3-L1 cells in maturation at 0.5 to 5 uM after 10 days by RT-qPCR analysis; assay type: functional, cell-based; settings: dose 0.5-5 µM, time 10.0 day
[8] = test system: 3T3-L1; assay: Induction of apoptosis in mouse 3T3-L1 adipocytes at 0.5 to 5 uM after 48 hrs by PI/Hoechst 33342 staining based fluorescence microscopic analysis; assay type: functional, cell-based; settings: dose 0.5-5 µM
[9] = test system: 3T3-L1; assay: Down regulation of Cyclin D1 protein expression in mouse 3T3-L1 cells at 0.5 to 5 uM after 18 hrs by western blot analysis; assay type: functional, cell-based; settings: dose 0.5-5 µM
[10] = test system: 3T3-L1; assay: Activation of AMPK-ACC signalling pathway in mouse 3T3-L1 cells assessed as increase in ACC phosphorylation in maturation at 0.5 to 5 uM after 48 hrs by Western blot analysis; assay type: cell-based; settings: filed as activator, dose 0.5-5 µM
[11] = test system: 3T3-L1; assay: Down regulation of FAS protein expression in mouse 3T3-L1 cells in early differentiation at 0.5 to 5 uM after 8 days by western blot analysis; assay type: functional, cell-based; settings: dose 0.5-5 µM, time 8.0 day
[12] = test system: 3T3-L1; assay: Down regulation of LPL protein expression in mouse 3T3-L1 cells in maturation at 0.5 to 5 uM after 10 days by western blot analysis; assay type: functional, cell-based; settings: dose 0.5-5 µM, time 10.0 day
[13] = test system: 3T3-L1; assay: (§1) Cytotoxicity against mouse 3T3-L1 pre-adipocytes assessed as reduction in cell viability after 48 hrs by MTT assay; assay type: toxicity, cell-based; settings: 3t3-l1, 48 h, time 48 hrs
[14] = as §1; assay type: toxicity, cell-based; settings: 3T3-L1 pre-adipocytes
[15] = test system: PCS-210-010; assay: Inhibition of preadipocyte differentiation in human PCS-210-010 cells assessed as reduction in lipid droplet accumulation in early differentiation at 0.5 to 5 uM incubated for 8 days by Oil Red O staining based inverted optical microscopic analysis; assay type: functional, cell-based; settings: dose 0.5-5 µM, time 8.0 day
[16] = test system: 3T3-L1; assay: Inhibition of preadipocyte differentiation in mouse 3T3-L1 cells assessed as increase in glycerol release in early differentiation at 0.5 to 5 uM incubated for 8 days by colorimetric assay; assay type: functional, cell-based; settings: dose 0.5-5 µM, time 8.0 day, DDE = dose-dependent effect
[17] = Cytotoxicity against human PCS-210-010 pre-adipocytes assessed as reduction in cell viability at >=10 uM after 48 hrs by MTT assay; assay type: toxicity, cell-based; settings: pcs-210-010, 48 h
[18] = test system: 3T3-L1; assay: Down regulation of PPARG mRNA expression in mouse 3T3-L1 cells at 0.5 to 5 uM after 48 hrs by RT-qPCR analysis; assay type: functional, cell-based; settings: dose 0.5-5 µM, DDE = dose-dependent effect
[19] = molecular target: 5'-AMP-activated protein kinase (Mus musculus) (UniProt Q5EG47+Q8BRK8+Q6PAM0+O54950+Q91WG5+Q9R078+Q8BGM7); assay: Activation of AMPK in mouse 3T3-L1 cells assessed as increase in AMPKbeta phosphorylation in early differentiation at 0.5 to 5 uM after 48 hrs by Western blot analysis; assay type: cell-based; settings: filed as activator, dose 0.5-5 µM
[20] = test system: 3T3-L1; assay: Cytotoxicity against mouse 3T3-L1 pre-adipocytes assessed as reduction in cell viability at >=25 uM after 48 hrs by MTT assay; assay type: toxicity, cell-based; settings: 3t3-l1, 48 h
[21] = test system: 3T3-L1; assay: Down regulation of PL1N1 protein expression in mouse 3T3-L1 cells in maturation at 0.5 to 5 uM after 10 days by western blot analysis; assay type: functional, cell-based; settings: dose 0.5-5 µM, time 10.0 day
[22] = test system: 3T3-L1; assay: Down regulation of PL1N1 mRNA expression in mouse 3T3-L1 cells in maturation at 0.5 to 5 uM after 10 days by RT-qPCR analysis; assay type: functional, cell-based; settings: dose 0.5-5 µM, time 10.0 day
[23] = test system: 3T3-L1; assay: Down regulation of LPL mRNA expression in mouse 3T3-L1 cells in early differentiation at 0.5 to 5 uM after 8 days by RT-qPCR analysis; assay type: functional, cell-based; settings: dose 0.5-5 µM, time 8.0 day
[24] = test system: PCS-210-010; assay: Inhibition of preadipocyte differentiation in human PCS-210-010 cells assessed as reduction in triglyceride accumulation in maturation at 0.5 to 5 uM incubated for 8 days by colorimetric assay; assay type: functional, cell-based; settings: dose 0.5-5 µM, time 8.0 day, DDE = dose-dependent effect
[25] = test system: 3T3-L1; assay: Inhibition of preadipocyte differentiation in mouse 3T3-L1 cells assessed as reduction in triglyceride accumulation in early differentiation at 0.5 to 5 uM incubated for 8 days by colorimetric assay; assay type: functional, cell-based; settings: dose 0.5-5 µM, time 8.0 day, DDE = dose-dependent effect
[26] = test system: 3T3-L1; assay: Down regulation of C/EBpalpha mRNA expression in mouse 3T3-L1 cells at 0.5 to 5 uM after 48 hrs by RT-qPCR analysis; assay type: functional, cell-based; settings: dose 0.5-5 µM, DDE = dose-dependent effect
[27] = molecular target: RAC-alpha serine/threonine-protein kinase (Mus musculus) (UniProt P31750); assay: Inhibition of AKT in mouse 3T3-L1 cells assessed as reduction in AKT phosphorylation in early differentiation at 0.5 to 5 uM after 48 hrs by Western blot analysis; assay type: cell-based; settings: dose 0.5-5 µM
[28] = test system: 3T3-L1; assay: Activation of AMPK-ACC signalling pathway in mouse 3T3-L1 cells assessed as increase in ACC phosphorylation in early differentiation at 0.5 to 5 uM after 48 hrs by Western blot analysis; assay type: cell-based; settings: filed as activator, dose 0.5-5 µM
[29] = test system: PCS-210-010; assay: Induction of apoptosis in human PCS-210-010 pre-adipocytes at 0.5 to 5 uM after 48 hrs by PI/Hoechst 33342 staining based fluorescence microscopic analysis; assay type: functional, cell-based; settings: dose 0.5-5 µM
[30] = test system: PCS-210-010; assay: Inhibition of preadipocyte differentiation in human PCS-210-010 cells assessed as increase in glycerol release in early differentiation at 0.5 to 5 uM incubated for 8 days by colorimetric assay; assay type: functional, cell-based; settings: dose 0.5-5 µM, time 8.0 day, DDE = dose-dependent effect
[31] = test system: 3T3-L1; assay: Down regulation of FABP4 protein expression in mouse 3T3-L1 cells in early differentiation at 0.5 to 5 uM after 8 days by western blot analysis; assay type: functional, cell-based; settings: dose 0.5-5 µM, time 8.0 day
[32] = test system: 3T3-L1; assay: Inhibition of AKT/GSK3beta signalling pathway in mouse 3T3-L1 cells assessed as reduction in GSK3beta phosphorylation in early differentiation at 0.5 to 5 uM after 48 hrs by Western blot analysis; assay type: cell-based; settings: dose 0.5-5 µM
[33] = test system: 3T3-L1; assay: Inhibition of AKT/GSK3beta signalling pathway in mouse 3T3-L1 cells assessed as reduction in GSK3beta phosphorylation in maturation at 0.5 to 5 uM after 48 hrs by Western blot analysis; assay type: cell-based; settings: dose 0.5-5 µM
[34] = test system: 3T3-L1; assay: Cytotoxicity against mouse 3T3-L1 pre-adipocytes assessed as reduction in cell viability at >=10 uM after 48 hrs by MTT assay; assay type: toxicity, cell-based; settings: 3t3-l1, 48 h
[35] = test system: PCS-210-010; assay: Inhibition of preadipocyte differentiation in human PCS-210-010 cells assessed as reduction in triglyceride accumulation in early differentiation at 0.5 to 5 uM incubated for 8 days by colorimetric assay; assay type: functional, cell-based; settings: dose 0.5-5 µM, time 8.0 day, DDE = dose-dependent effect
[36] = test system: 3T3-L1; assay: Down regulation of adiponectin protein expression in mouse 3T3-L1 cells in early differentiation at 0.5 to 5 uM after 8 days by western blot analysis; assay type: functional, cell-based; settings: dose 0.5-5 µM, time 8.0 day
[37] = test system: 3T3-L1; assay: Upregulation of p18 protein expression in mouse 3T3-L1 cells at 0.5 to 5 uM after 18 hrs by western blot analysis; assay type: functional, cell-based; settings: dose 0.5-5 µM

Chain of RAC-alpha serine/threonine-protein kinase (Mus musculus) (P31750 whole entry): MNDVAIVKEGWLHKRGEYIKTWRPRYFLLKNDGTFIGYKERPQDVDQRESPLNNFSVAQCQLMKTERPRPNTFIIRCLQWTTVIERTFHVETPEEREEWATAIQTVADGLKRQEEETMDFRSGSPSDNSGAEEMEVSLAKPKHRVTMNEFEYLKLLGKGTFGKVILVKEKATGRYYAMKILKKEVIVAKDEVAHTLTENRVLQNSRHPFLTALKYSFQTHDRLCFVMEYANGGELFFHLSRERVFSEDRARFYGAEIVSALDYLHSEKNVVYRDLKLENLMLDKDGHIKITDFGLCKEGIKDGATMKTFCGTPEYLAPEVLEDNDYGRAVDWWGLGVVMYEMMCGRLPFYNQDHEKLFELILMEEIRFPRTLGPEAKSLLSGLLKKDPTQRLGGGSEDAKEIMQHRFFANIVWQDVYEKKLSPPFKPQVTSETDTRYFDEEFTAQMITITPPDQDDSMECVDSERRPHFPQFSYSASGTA

With `COc1cc(CCc2cc(O)c(O)c(OC)c2)ccc1O` the Activity [1] was “Active”, the Activity [2] was “Active” and the inhibition [3] was “Dde”. For the same compound, the Activity [4] was “Non-Toxic”, the Activity [5] was “Active” and the Activity [6] was “Dde”. For the same compound, the Activity [7] was “Active”, the Activity [8] was “Non-Toxic” and the Activity [9] was “Active”. For the same compound, the Activity [10] was “Active”, the Activity [11] was “Active” and the Activity [12] was “Active”. For the same compound, the Activity [13] was “Toxic”, the IC50 at 48 h [14] was 35.5 µM and the inhibition [15] was “Active”. The inhibition [16] was “Dde”, the Activity [17] was “Toxic” and the Activity [18] was “Dde”. The Activity [19] was “Active”, the Activity [20] was “Toxic” and the Activity [21] was “Active”. The Activity [22] was “Active”, the Activity [23] was “Active” and the inhibition [24] was “Dde”. The inhibition [25] was “Dde”, the Activity [26] was “Dde” and the inhibition [27] was “Active”. For the same compound, the Activity [28] was “Active”, the Activity [29] was “Non-Toxic” and the inhibition [30] was “Dde”. The Activity [31] was “Active”, the inhibition [32] was “Active” and the inhibition [33] was “Active”. The Activity [34] was “Toxic”, the inhibition [35] was “Dde” and the Activity [36] was “Active”. For the same compound, the Activity [37] was “Active”.
